± gives the uncertainty stated by the source.
Assay: xn = mol fraction of the nth substance listed

CCCCCCCCCCCC + C1CCCCC1
Conditions	viscosity [mPa·s]
297.78 K, 101.3 kPa, x1 = 0.4996	1.131 ± 0.014
298.13 K, 101.3 kPa, x1 = 0.7489	1.247 ± 0.016
298.15 K, 100 kPa, x2 = 0.2	1.263 ± 0.051
298.15 K, 100 kPa, x2 = 0.4	1.171 ± 0.047
298.15 K, 100 kPa, x2 = 0.6	1.071 ± 0.043
298.15 K, 100 kPa, x2 = 0.8	0.979 ± 0.039
298.15 K, 101.33 kPa, x1 = 0.0169	0.9114 ± 0.0077
298.15 K, 101.33 kPa, x2 = 0.1549	1.299 ± 0.011
298.15 K, 101.33 kPa, x2 = 0.2886	1.237 ± 0.01
298.15 K, 101.33 kPa, x2 = 0.3945	1.187 ± 0.0097
298.15 K, 101.33 kPa, x2 = 0.5031	1.138 ± 0.0094
298.15 K, 101.33 kPa, x2 = 0.5879	1.098 ± 0.0091
298.15 K, 101.33 kPa, x2 = 0.6636	1.048 ± 0.0087
298.15 K, 101.33 kPa, x2 = 0.7601	1.011 ± 0.0084
298.15 K, 101.33 kPa, x2 = 0.7983	0.9774 ± 0.0082
298.15 K, 101.33 kPa, x2 = 0.8536	0.9573 ± 0.008
298.15 K, 101.33 kPa, x2 = 0.8943	0.9433 ± 0.0079
298.15 K, 101.33 kPa, x2 = 0.941	0.9223 ± 0.0078
298.31 K, 101.3 kPa, x1 = 0.5001	1.121 ± 0.014
298.35 K, 101.3 kPa, x1 = 0.5001	1.116 ± 0.014
298.38 K, 101.3 kPa, x1 = 0.2501	0.9923 ± 0.017
298.43 K, 101.3 kPa, x1 = 0.2501	0.9883 ± 0.017
298.43 K, 101.3 kPa, x1 = 0.4996	1.114 ± 0.014
298.61 K, 101.3 kPa, x1 = 0.7489	1.232 ± 0.015
298.62 K, 101.3 kPa, x1 = 0.7489	1.232 ± 0.015
308.76 K, 101.3 kPa, x1 = 0.5001	0.9475 ± 0.011
308.86 K, 101.3 kPa, x1 = 0.5001	0.948 ± 0.011
323.15 K, 100 kPa, x2 = 0.2	0.8615 ± 0.035
323.15 K, 100 kPa, x2 = 0.4	0.8075 ± 0.032
323.15 K, 100 kPa, x2 = 0.6	0.7427 ± 0.03
323.15 K, 100 kPa, x2 = 0.8	0.6736 ± 0.027

CCCCCCCCCCO + C1CCCCC1
Conditions	viscosity [mPa·s]
293.15 K, 100 kPa, x2 = 0.0822	12.17 ± 0.98
293.15 K, 100 kPa, x2 = 0.1602	10.37 ± 0.83
293.15 K, 100 kPa, x2 = 0.2397	8.74 ± 0.7
293.15 K, 100 kPa, x2 = 0.3476	6.8 ± 0.55
293.15 K, 100 kPa, x2 = 0.4402	5.45 ± 0.44
293.15 K, 100 kPa, x2 = 0.5604	3.92 ± 0.32
293.15 K, 100 kPa, x2 = 0.6506	2.95 ± 0.24
293.15 K, 100 kPa, x2 = 0.7397	2.18 ± 0.18
293.15 K, 100 kPa, x2 = 0.8508	1.48 ± 0.12
293.15 K, 100 kPa, x2 = 0.94	1.1 ± 0.09
303.15 K, 100 kPa, x2 = 0.0822	8.4 ± 0.67
303.15 K, 100 kPa, x2 = 0.1602	7.28 ± 0.58
303.15 K, 100 kPa, x2 = 0.2397	6.22 ± 0.5
303.15 K, 100 kPa, x2 = 0.3476	4.96 ± 0.4
303.15 K, 100 kPa, x2 = 0.4402	4.02 ± 0.32
303.15 K, 100 kPa, x2 = 0.5604	2.97 ± 0.24
303.15 K, 100 kPa, x2 = 0.6506	2.31 ± 0.19
303.15 K, 100 kPa, x2 = 0.7397	1.77 ± 0.14
303.15 K, 100 kPa, x2 = 0.8508	1.29 ± 0.1
303.15 K, 100 kPa, x2 = 0.94	0.98 ± 0.08
303.15 K, 101.33 kPa, x1 = 0.1009	1.08 ± 0.013
303.15 K, 101.33 kPa, x1 = 0.1983	1.404 ± 0.017
303.15 K, 101.33 kPa, x1 = 0.2985	1.829 ± 0.021
303.15 K, 101.33 kPa, x1 = 0.3954	2.357 ± 0.027
303.15 K, 101.33 kPa, x1 = 0.5	3.076 ± 0.035
303.15 K, 101.33 kPa, x1 = 0.5845	3.781 ± 0.043
303.15 K, 101.33 kPa, x1 = 0.6939	4.863 ± 0.054
303.15 K, 101.33 kPa, x1 = 0.7949	6.023 ± 0.064
303.15 K, 101.33 kPa, x1 = 0.8949	7.33 ± 0.076
308 K, 101 kPa, x2 = 0.0801	6.912 ± 0.049
308 K, 101 kPa, x2 = 0.2421	5.397 ± 0.04
308 K, 101 kPa, x2 = 0.3455	4.468 ± 0.033
308 K, 101 kPa, x2 = 0.4703	3.396 ± 0.025
308 K, 101 kPa, x2 = 0.5762	2.579 ± 0.019
308 K, 101 kPa, x2 = 0.6347	2.14 ± 0.016
308 K, 101 kPa, x2 = 0.7203	1.702 ± 0.013
308 K, 101 kPa, x2 = 0.8752	1.061 ± 0.0084
308 K, 101 kPa, x2 = 0.9408	0.86 ± 0.0069
313.15 K, 100 kPa, x2 = 0.0822	5.95 ± 0.48
313.15 K, 100 kPa, x2 = 0.1602	5.22 ± 0.42
313.15 K, 100 kPa, x2 = 0.2397	4.53 ± 0.36
313.15 K, 100 kPa, x2 = 0.3476	3.69 ± 0.3
313.15 K, 100 kPa, x2 = 0.4402	3.04 ± 0.24
313.15 K, 100 kPa, x2 = 0.5604	2.29 ± 0.18
313.15 K, 100 kPa, x2 = 0.6506	1.82 ± 0.15
313.15 K, 100 kPa, x2 = 0.7397	1.43 ± 0.12
313.15 K, 100 kPa, x2 = 0.8508	1.05 ± 0.08
313.15 K, 100 kPa, x2 = 0.94	0.81 ± 0.07
323.15 K, 100 kPa, x2 = 0.0822	4.35 ± 0.35
323.15 K, 100 kPa, x2 = 0.1602	3.85 ± 0.31
323.15 K, 100 kPa, x2 = 0.2397	3.36 ± 0.27
323.15 K, 100 kPa, x2 = 0.3476	2.78 ± 0.22
323.15 K, 100 kPa, x2 = 0.4402	2.35 ± 0.19
323.15 K, 100 kPa, x2 = 0.5604	1.84 ± 0.15
323.15 K, 100 kPa, x2 = 0.6506	1.51 ± 0.12
323.15 K, 100 kPa, x2 = 0.7397	1.22 ± 0.1
323.15 K, 100 kPa, x2 = 0.8508	0.91 ± 0.07
323.15 K, 100 kPa, x2 = 0.94	0.71 ± 0.06

Cc1ccccc1C + C1CCCCC1
viscosity [mPa·s], 101 kPa
Conditions	x1 = 0.0998	x1 = 0.2001	x1 = 0.3	x1 = 0.4	x1 = 0.5	x1 = 0.6	x1 = 0.7001	x1 = 0.7999	x1 = 0.9
303.15 K	0.7647 ± 0.0078	0.7241 ± 0.0076	0.6977 ± 0.0074	0.6817 ± 0.0074	0.6728 ± 0.0073	0.6706 ± 0.0073	0.6735 ± 0.0073	0.681 ± 0.0073	0.6924 ± 0.0074
308.15 K	0.7083 ± 0.0075	0.6736 ± 0.0073	0.6511 ± 0.0072	0.6372 ± 0.0071	0.6306 ± 0.0071	0.6289 ± 0.0071	0.6317 ± 0.0071	0.639 ± 0.0071	0.65 ± 0.0072
313.15 K	0.6583 ± 0.0072	0.6281 ± 0.0071	0.6097 ± 0.007	0.5979 ± 0.0069	0.592 ± 0.0069	0.5919 ± 0.0069	0.5946 ± 0.0069	0.6015 ± 0.0069	0.6118 ± 0.007
318.15 K	0.6129 ± 0.007	0.5876 ± 0.0069	0.572 ± 0.0068	0.5615 ± 0.0067	0.5568 ± 0.0067	0.5562 ± 0.0067	0.5614 ± 0.0067	0.5679 ± 0.0068	0.5772 ± 0.0068
323.15 K	0.5722 ± 0.0068	0.5508 ± 0.0067	0.5372 ± 0.0066	0.5284 ± 0.0066	0.5247 ± 0.0066	0.5248 ± 0.0066	0.5293 ± 0.0066	0.5365 ± 0.0066	0.5452 ± 0.0067

Cc1ccccc1C + C1COCCO1
308.15 K, 101 kPa
Conditions	viscosity [mPa·s]
x2 = 0.1	0.676 ± 0.009
x2 = 0.2	0.699 ± 0.009
x2 = 0.3	0.723 ± 0.009
x2 = 0.5	0.774 ± 0.01
x2 = 0.6	0.806 ± 0.01
x2 = 0.7	0.841 ± 0.011
x2 = 0.8	0.879 ± 0.011
x2 = 0.9	0.922 ± 0.012

COCCOCCO + CC1COC(=O)O1
298.15 K, 101.33 kPa
Conditions	viscosity [mPa·s]
x1 = 0.0342	2.506 ± 0.019
x1 = 0.0633	2.515 ± 0.02
x1 = 0.0849	2.524 ± 0.02
x1 = 0.1101	2.537 ± 0.02
x1 = 0.1406	2.548 ± 0.021
x1 = 0.1617	2.559 ± 0.021
x1 = 0.1739	2.568 ± 0.021
x1 = 0.2188	2.601 ± 0.022
x1 = 0.2694	2.645 ± 0.022
x1 = 0.3234	2.698 ± 0.023
x1 = 0.3696	2.751 ± 0.024
x1 = 0.3809	2.771 ± 0.025
x1 = 0.4421	2.844 ± 0.026
x1 = 0.4715	2.886 ± 0.027
x1 = 0.5373	2.97 ± 0.028
x1 = 0.5688	3.011 ± 0.029
x1 = 0.6187	3.063 ± 0.03
x1 = 0.6576	3.108 ± 0.031
x1 = 0.7503	3.217 ± 0.033
x1 = 0.7761	3.248 ± 0.034
x1 = 0.7996	3.269 ± 0.035
x1 = 0.8142	3.282 ± 0.035
x1 = 0.8452	3.313 ± 0.036
x1 = 0.9062	3.367 ± 0.037
x1 = 0.9414	3.404 ± 0.038
x2 = 0.0198	3.432 ± 0.039

Cc1ccccc1C + CC1COC(=O)O1
303.15 K, 101.3 kPa
Conditions	viscosity [mPa·s]
x2 = 0.1383	0.8178 ± 0.014
x2 = 0.2653	0.9124 ± 0.016
x2 = 0.3824	1.011 ± 0.017
x2 = 0.4906	1.12 ± 0.019
x2 = 0.5909	1.244 ± 0.021
x2 = 0.6842	1.384 ± 0.023
x2 = 0.7712	1.547 ± 0.025
x2 = 0.8525	1.733 ± 0.028
x2 = 0.9286	1.937 ± 0.031

CCC#N + CC#N
298 K, 101.33 kPa
Conditions	viscosity [mPa·s]
x1 = 0.1298	0.35 ± 0.004
x1 = 0.2716	0.36 ± 0.004
x1 = 0.4271	0.374 ± 0.004
x1 = 0.5986	0.384 ± 0.004
x1 = 0.7885	0.402 ± 0.004

CCCCCCCCCCO + CC#N
viscosity [mPa·s], 101 kPa
Conditions	298.15 K	303.15 K	308.15 K
x2 = 0.0939	8.794 ± 0.65	7.622 ± 0.58	6.471 ± 0.51
x2 = 0.2005	6.554 ± 0.52	5.66 ± 0.46	4.934 ± 0.42
x2 = 0.301	4.932 ± 0.42	4.226 ± 0.36	3.648 ± 0.31
x2 = 0.3902	3.872 ± 0.33	3.394 ± 0.29	2.877 ± 0.25
x2 = 0.4935	2.848 ± 0.25	2.467 ± 0.22	2.15 ± 0.19
x2 = 0.6249	1.83 ± 0.16	1.678 ± 0.15	1.441 ± 0.13
x2 = 0.7216	1.302 ± 0.12	1.189 ± 0.11	1.053 ± 0.1
x2 = 0.7933	1.021 ± 0.097	0.864 ± 0.084	0.777 ± 0.077
x2 = 0.8544	0.79 ± 0.078	0.636 ± 0.065	0.586 ± 0.061
x2 = 0.9006	0.548 ± 0.058	0.51 ± 0.055	0.479 ± 0.052
x2 = 0.9382	0.46 ± 0.051	0.431 ± 0.048	0.411 ± 0.046
x2 = 0.9708	0.395 ± 0.045	0.379 ± 0.044	0.358 ± 0.042
